From ChEMBL document CHEMBL4706476, “Novel Tetrahydropyrido[4,3-d]pyrimidines as Potent Inhibitors of Chaperone Heat Shock Protein 90” (J Med Chem, 2016)
≈ marks a conversion by molar mass, not a printed value.

Columns and labels:
[1] = Distribution coefficient, logD of compound at pH 7.4; type: physicochemical; settings: octanol/water
Endoplasmin = Endoplasmin (Homo sapiens, UniProt P14625); test: Displacement of FITC-geldanamycin from N-terminal GRP94 (unknown origin) after 30 mins by fluorescence polarization competitive binding assay
Chain of Endoplasmin (P14625 whole entry): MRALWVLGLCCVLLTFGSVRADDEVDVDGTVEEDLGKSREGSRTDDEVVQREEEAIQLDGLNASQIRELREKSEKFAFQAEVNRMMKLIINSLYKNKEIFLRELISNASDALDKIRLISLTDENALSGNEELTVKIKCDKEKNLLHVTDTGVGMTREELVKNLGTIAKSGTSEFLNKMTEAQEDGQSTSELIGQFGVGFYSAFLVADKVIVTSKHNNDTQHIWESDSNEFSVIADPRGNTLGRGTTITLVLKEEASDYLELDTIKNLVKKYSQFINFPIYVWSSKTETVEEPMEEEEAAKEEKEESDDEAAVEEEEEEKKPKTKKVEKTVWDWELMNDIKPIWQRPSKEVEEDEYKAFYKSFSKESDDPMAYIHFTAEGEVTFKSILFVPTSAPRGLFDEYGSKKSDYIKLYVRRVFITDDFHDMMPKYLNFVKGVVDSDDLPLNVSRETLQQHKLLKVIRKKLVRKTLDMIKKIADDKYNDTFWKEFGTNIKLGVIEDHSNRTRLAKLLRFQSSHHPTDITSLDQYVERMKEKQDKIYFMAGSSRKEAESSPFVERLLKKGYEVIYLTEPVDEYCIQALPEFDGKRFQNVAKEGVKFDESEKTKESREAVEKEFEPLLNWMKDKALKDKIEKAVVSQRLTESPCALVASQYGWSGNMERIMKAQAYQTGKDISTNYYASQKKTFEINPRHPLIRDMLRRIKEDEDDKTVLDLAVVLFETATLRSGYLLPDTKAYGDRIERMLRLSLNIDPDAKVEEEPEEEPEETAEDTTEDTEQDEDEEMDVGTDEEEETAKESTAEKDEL

MCF7 = test: cells; settings: Homo sapiens, MCF7, 72 h
[2] = Selectivity ratio of IC50 for inhibition of FITC-geldanamycin binding to N-terminal GRP94 (unknown origin) to IC50 for inhibition of FITC-geldanamycin binding to N-terminal HSP90alpha (unknown origin)
HCT-116 = test: cells; settings: Homo sapiens, HCT-116, 72 h
Description: Antiproliferative activity against human HCT-116 cells assessed as reduction in cell viability incubated for 72 hrs by MTT assay

[3] = molecular target: Heat shock protein HSP 90-alpha (Homo sapiens, UniProt P07900); test: Displacement of FITC-geldanamycin from N-terminal HSP90alpha (unknown origin) after 30 mins by fluorescence polarization competitive binding assay
[4] = Intrinsic aqueous solubility of the compound; type: physicochemical
[5] = Permeability of the compound at pH 7.4 by PAMPA; type: ADME; settings: read-out: permeability

Row | SMILES | logD [1] | IC50 (Endoplasmin) | IC50 (MCF7) | Ratio IC50 [2] | IC50 (HCT-116) | IC50 [3] | solubility [4] | Papp [5]
1 | COCCOc1nc2c(c(NC3CC3)n1)CN(C(=O)c1cc(C(C)C)c(O)cc1O)CC2 | 2.45 | 216 nM | 160 nM | 11.4 | 230 nM | 19 nM | 157 µg/mL (≈ 355 µM) | 56.4 ×10⁻⁶ cm/s
2 | CCOc1nc(OCCOC)nc2c1CN(C(=O)c1cc(C(C)C)c(O)cc1O)CC2 | 2.74 | 608 nM | 180 nM | 23.4 | 320 nM | 26 nM | 86.1 µg/mL (≈ 200 µM) | 77.3 ×10⁻⁶ cm/s
3 | COCCOc1nc2c(c(N(C)C)n1)CN(C(=O)c1cc(C(C)C)c(O)cc1O)CC2 | 2.35 | 195 nM | 330 nM | 12.2 | 260 nM | 16 nM | 153 µg/mL (≈ 355 µM) | 83 ×10⁻⁶ cm/s
4 | CCOc1ncc2c(n1)CCN(C(=O)c1cc(C(C)C)c(O)cc1O)C2 | 2.95 | 561 nM | 620 nM | 10 | 760 nM | 56 nM | 66 µg/mL (≈ 185 µM) | 72.4 ×10⁻⁶ cm/s
5 | Cc1ncc2c(n1)CN(C(=O)c1cc(Cl)c(O)cc1O)C2 | – | – | 5480 nM | – | 10700 nM | 474 nM | – | –
6 | CC(C)c1cc(C(=O)N2CCc3nc(N(C)C)ncc3C2)c(O)cc1O | – | – | 1390 nM | – | 1020 nM | 164 nM | – | –
7 | Cc1ncc2c(n1)CN(C(=O)c1cc(Br)c(O)cc1O)C2 | – | – | 3720 nM | – | 1550 nM | 262 nM | – | –
8 | CC(C)c1cc(C(=O)N2CCc3nc(OC4CCN(C)CC4)ncc3C2)c(O)cc1O | – | – | 1790 nM | – | 1700 nM | 76 nM | – | –
9 | CCN(CC)c1nc(OCCOC)nc2c1CN(C(=O)c1cc(C(C)C)c(O)cc1O)CC2 | 3.08 | 1100 nM | 2890 nM | 10.8 | 3570 nM | 102 nM | 95.9 µg/mL (≈ 209 µM) | 107 ×10⁻⁶ cm/s
10 | CC(C)c1cc(C(=O)N2CCc3nc(OCCN(C)C)ncc3C2)c(O)cc1O | 1.04 | 290 nM | 1580 nM | 9.7 | 2380 nM | 30 nM | 148 µg/mL (≈ 370 µM) | 3.25 ×10⁻⁶ cm/s
11 | CCCCOc1ncc2c(n1)CCN(C(=O)c1cc(C(C)C)c(O)cc1O)C2 | – | 670 nM | 880 nM | 7.6 | 1270 nM | 88 nM | – | –
12 | CC(C)Oc1ncc2c(n1)CCN(C(=O)c1cc(C(C)C)c(O)cc1O)C2 | – | 518 nM | 960 nM | 8 | 1240 nM | 65 nM | – | –
13 | CC(=O)N1CCN(c2ncc3c(n2)CCN(C(=O)c2cc(C(C)C)c(O)cc2O)C3)CC1 | – | – | 3620 nM | – | 1600 nM | 270 nM | – | –
14 | CCNc1ncc2c(n1)CCN(C(=O)c1cc(C(C)C)c(O)cc1O)C2 | – | – | 1580 nM | – | 1560 nM | 167 nM | – | –
15 | CC(C)c1cc(C(=O)N2CCc3nc(OCCN4CCOCC4)ncc3C2)c(O)cc1O | 1.48 | – | 1230 nM | – | 1060 nM | 28 nM | 140 µg/mL (≈ 316 µM) | 30.2 ×10⁻⁶ cm/s
16 | CC(C)c1cc(C(=O)N2CCc3nc(OC4CCCC4)ncc3C2)c(O)cc1O | – | – | 1190 nM | – | 1720 nM | 71 nM | – | –
17 | CC(C)c1cc(C(=O)N2CCc3nc(OC4CCOCC4)ncc3C2)c(O)cc1O | – | – | 820 nM | – | 600 nM | 56 nM | – | –
18 | CCCN(CCC)c1ncc2c(n1)CCN(C(=O)c1cc(C(C)C)c(O)cc1O)C2 | – | – | 3090 nM | – | 5700 nM | 370 nM | – | –
19 | Cc1ncc2c(n1)CCN(C(=O)c1cc(Br)c(O)cc1O)C2 | – | – | 1730 nM | – | 1530 nM | 132 nM | – | –
20 | CCN(CC)c1ncc2c(n1)CCN(C(=O)c1cc(C(C)C)c(O)cc1O)C2 | – | – | 2160 nM | – | 4420 nM | 201 nM | – | –

Row | SMILES | logD [1] | IC50 (Endoplasmin) | IC50 (MCF7) | Ratio IC50 [2] | IC50 (HCT-116) | IC50 [3] | solubility [4] | Papp [5]
21 | CC(C)c1cc(C(=O)N2CCc3nc(N4CCCC4)ncc3C2)c(O)cc1O | – | – | 4550 nM | – | 1140 nM | 113 nM | – | –
22 | Cc1ncc2c(n1)CN(C(=O)c1cc(C(C)C)c(O)cc1O)C2 | – | 50 nM | 2140 nM | 1.3 | 1630 nM | 38 nM | – | 27 ×10⁻⁶ cm/s
23 | CNc1ncc2c(n1)CCN(C(=O)c1cc(C(C)C)c(O)cc1O)C2 | – | – | 1250 nM | – | 740 nM | 113 nM | – | –
24 | CCCOc1ncc2c(n1)CCN(C(=O)c1cc(C(C)C)c(O)cc1O)C2 | – | 498 nM | 1340 nM | 8.3 | 1080 nM | 60 nM | – | –
25 | CC(C)c1cc(C(=O)N2CCc3nc(N4CCCCC4)ncc3C2)c(O)cc1O | – | – | 4460 nM | – | 1550 nM | 172 nM | – | –
26 | CCN1CCN(c2ncc3c(n2)CCN(C(=O)c2cc(C(C)C)c(O)cc2O)C3)CC1 | – | – | 1430 nM | – | 1650 nM | 191 nM | – | –
27 | CC(C)COc1ncc2c(n1)CCN(C(=O)c1cc(C(C)C)c(O)cc1O)C2 | – | 706 nM | 1330 nM | 10.9 | 1230 nM | 65 nM | – | –
28 | CC(C)c1cc(C(=O)N2CCc3nc(OCCCN(C)C)ncc3C2)c(O)cc1O | 1.09 | – | 2370 nM | – | 920 nM | 36 nM | 156 µg/mL (≈ 375 µM) | 4.15 ×10⁻⁶ cm/s
29 | Cc1ncc2c(n1)CCN(C(=O)c1cc(C(C)C)c(O)cc1O)C2 | – | 245 nM | 1480 nM | 9.4 | 1150 nM | 26 nM | – | 33.3 ×10⁻⁶ cm/s
30 | COc1ncc2c(n1)CCN(C(=O)c1cc(C(C)C)c(O)cc1O)C2 | – | 498 nM | 630 nM | 6.6 | 1160 nM | 75 nM | – | –
31 | CC(C)c1cc(C(=O)N2CCc3nc(OC4CCCCC4)ncc3C2)c(O)cc1O | – | – | 1870 nM | – | 2780 nM | 103 nM | – | –
32 | CC(C)Nc1ncc2c(n1)CCN(C(=O)c1cc(C(C)C)c(O)cc1O)C2 | – | – | 2680 nM | – | 2430 nM | 222 nM | – | –
33 | Cc1ncc2c(n1)CCN(C(=O)c1cc(Cl)c(O)cc1O)C2 | – | – | – | – | – | 101 nM | – | –
34 | CC(C)c1cc(C(=O)N2CCc3nc(OCCN4CCCC4)ncc3C2)c(O)cc1O | 1.12 | – | 1930 nM | – | 980 nM | 29 nM | 146 µg/mL (≈ 341 µM) | 3.06 ×10⁻⁶ cm/s
35 | CC(C)c1cc(C(=O)N2CCc3nc(OCCN4CCCCC4)ncc3C2)c(O)cc1O | 1.21 | – | 2330 nM | – | 780 nM | 30 nM | 175 µg/mL (≈ 396 µM) | 20.5 ×10⁻⁶ cm/s
36 | CCCCN(CCCC)c1ncc2c(n1)CCN(C(=O)c1cc(C(C)C)c(O)cc1O)C2 | – | – | 1120 nM | – | 1290 nM | 343 nM | – | –
37 | CC(C)c1cc(C(=O)N2CCc3nc(N4CCOCC4)ncc3C2)c(O)cc1O | – | – | 1820 nM | – | 1470 nM | 110 nM | – | –
38 | CCCNc1ncc2c(n1)CCN(C(=O)c1cc(C(C)C)c(O)cc1O)C2 | – | – | 2370 nM | – | 2340 nM | 238 nM | – | –
39 | CC(C)c1cc(C(=O)N2CCc3nc(N4CCN(C)CC4)ncc3C2)c(O)cc1O | – | – | 2180 nM | – | 1710 nM | 271 nM | – | –
